Experimental data: patent US20100247448A1, “NOVEL LANTHANIDE LIGANDS AND COMPLEXES, AND USE THEREOF AS CONTRAST AGENTS” (COMMISSARIAT A L'ENERGIE ATOMIQUE, priority 2006, published 2010)
“And” between values parts separate entries of the source, which are not always exact repeats. Identical values can stand only once. Like-named read-outs stand apart in the source and are kept apart here.

What was measured:
[1] = Absorption and luminescence (excitation, molar absorption, lifetime, quantal throughput); type: physicochemical; settings: for molar absorption coefficient: band at ˜36500 cm^−1; for ΦD2O (quantal throughput): in D2O; for ΦH2O (quantal throughput): in H2O; for τD2O (luminescence lifetime): in deuterized water; for τH2O (luminescence lifetime): in water; for emission quantal throughput F: relative to [Tb(dpa)3]^3−, buffer solution Tris 0.1M, 15% experimental error
Excerpt: The absorption spectra of bpatcn^3− and its complexes of Eu^III and Tb^III show an intense band at ˜36500 cm^−1 with a molar absorption coefficient of 9050 for Eu and of 9100 for Tb. These bands have been attributed to a combination of π-->π* and n-->π* centred transitions of the ligand.
FIGS. 3a and 3b show respectively the emission spectra of the solutions of the europium and terbium complexes at pH=7.4 (obtained after excitation at 273 nm) and the usual and typical transitions ^5D0-->^7FJ and ^5D4-->^7FJ (J=0-6) of the ions Eu^3+ and Tb^3+.
The emission quantal throughput of the complex of [Tb(bpatcn)(H2O)]
The long life time of the luminescence observed for the terbium complex in water (1.5 ms), excludes the presence of a de-energizing process including the energy return of the metal in its energized state towards the ligand.
Chem. Int. Ed. Engl., 1987, 26, 1266; G. Mathis, Clin. Chem., 1993, 39, 195

[2] = cited from earlier work; for Log βGdL (log KGdL): literature
[3] = cited from earlier work; for logβCaL: literature
[4] = literature; cited from earlier work
[5] = Stability constant of the Ca complex by direct titration of 1:1 metal:ligand; pCa; type: physicochemical; settings: for logβCaL (log KCaL): present work, 1:1 metal:H3bpatcn 5.10^−4 M, pH 2.5 to 8.5
Excerpt: (§1) The stability constants of the complexes of H3bpatcn of Gd^III and of […] have been calculated by direct titration of a mixture of 1:1 metal:H3bpatcn (5.10^−4 M) in a pH range between 2.5 and 8.5.
(§2) The titration data may be represented by the following equations:
Ca^2++bpatcn^3−⇄[Ca(bpatcn)]^− log KCaL=8.18(7)

[6] = gadolinium complexes; cited from earlier work
[7] = Stability constant of the Gd complex by direct titration of 1:1 metal:ligand; pGd; type: physicochemical; settings: for Log βGdL (log KGdL): present work, 1:1 metal:H3bpatcn 5.10^−4 M, pH 2.5 to 8.5
Excerpt: as §1, §2
Gd^3++bpatcn^3−⇄[Gd(bpatcn)] log KGdL=15.8(2);

[8] = De-protonation constants (pKa) by potentiometric titration; type: physicochemical; settings: 0.1 M KCl, 298 K
Excerpt: Both following equivalents protonate the carboxylate moieties associated with the pyridines (pKa2=2.3(2), pKa3=3.71(3).
The protonation curve and the structural data match a simultaneous partial protonation of the three nitrogens of the macrocycle as observed for the ligand H3nota, followed by the protonation of the carboxylate moieties. The protonation of the third amine and of the nitrogens of the pyridines takes place at lower pH and the related pKa has not been determined.

[9] = pH 7.4, [M]total=1 μM, [bpatcn]total=10 μM
[10] = commercial contrast agent, comparison

Which ε [1] does the source give for `O=C([O-])CN1CCN(Cc2cccc(C(=O)[O-])n2)CCN(Cc2cccc(C(=O)[O-])n2)CC1.[Tb+3]` [Tb (bpatcn)] here?
The ε was 9100 M⁻¹ cm⁻¹.

And the λexc [1]?
The λexc was 273 nm.

And the “quantal throughput value Φ” value ([1]; as stated in text before the table)?
The value was 48%.

What about the molar absorption coefficient [1] of the same compound?
The molar absorption coefficient was 9100 M⁻¹ cm⁻¹.

What about the “ΦD2O (quantal throughput)” value [1] of the same compound?
Its value is 0.48.

What about the “ΦH2O (quantal throughput)” value [1] of the same compound?
The value was 0.43.

What about the “τD2O (luminescence lifetime)” value [1] of the same compound?
The value was 2.46 (7) ms.

And the “τH2O (luminescence lifetime)” value [1]?
The value was 1.5 ms and 1.49 (2) ms.

And the “emission quantal throughput F” value [1]?
The value was 43%.

With `O=C([O-])CN1CCN(Cc2cccc(C(=O)[O-])n2)CCN(Cc2cccc(C(=O)[O-])n2)CC1.[Eu+3]` [Eu (bpatcn)] as the compound, how does the ε [1] read?
Its ε is 9050 M⁻¹ cm⁻¹.

And the λexc [1]?
Its λexc is 273 nm.

What about the molar absorption coefficient [1] of the same compound?
The molar absorption coefficient was 9050 M⁻¹ cm⁻¹.

What about the “ΦD2O (quantal throughput)” value [1] of the same compound?
Its value is 0.12.

And the “ΦH2O (quantal throughput)” value [1]?
Its value is 0.05.

And the “τD2O (luminescence lifetime)” value [1]?
Its value is 1.67 (4) ms.

What about the “τH2O (luminescence lifetime)” value [1] of the same compound?
Its value is 0.542 (4) ms.

What about the “emission quantal throughput F” value [1] of the same compound?
Its value is 5%.

For `O=C(O)c1cccc(CN(Cc2cccc(C(=O)O)n2)Cc2cccc(C(=O)O)n2)n1` [H3tpaa, α, α′, α″ nitrilotri(6-methyl-2-pyridinecarboxylic) acid], which “Log βGdL (log KGdL)” value [2] is on record?
The value was 10.2(2).

What about the logβCaL [3] of the same compound?
Its logβCaL is 8.5(2).

And the “pKa (highest, first listed)” value [4]?
The value was 4.11(6).

And the “pKa (second listed)” value [4]?
Its value is 3.3(1).

What about the “pKa (third listed)” value [4] of the same compound?
Its value is 2.5(2).

For `O=C(O)CN1CCN(Cc2cccc(C(=O)[O-])n2)CCN(Cc2cccc(C(=O)[O-])n2)CC1.[Ca+2]` [[Ca(bpatcn)]^−], which “logβCaL (log KCaL)” value [5] is on record?
Its value is 8.18(7).

Which results are given for `O=C(O)CN(CC(=O)O)CC(=O)O` [H3nta, nitrilotriethanoic acid]?
Log βGdL (log KGdL) [2]: 11.4; pKa (highest, first listed) [4]: 9.75; pKa (second listed) [4]: 2.64; pKa (third listed) [4]: 1.57

For `O=C([O-])c1cccc(CN2CCN(Cc3cccc(C(=O)[O-])n3)CCN(Cc3cccc(C(=O)[O-])n3)CC2)n1.[Gd+3]` [[Gd(tpatcn)]], which “zero-field spin electronic relaxation” value [6] is on record?
Its value is “approx. 1500 ps”.

With `O=C(O)CN1CCN(CC(=O)O)CCN(CC(=O)O)CCN(CC(=O)O)CC1` (Gd complex, metal not drawn) [dota, 1,4,7,10-tetraazacyclododecane-N,N′,N″,N′″-tetra-acetic (H4dota) acid] as the compound, how does the “zero-field spin electronic relaxation” value [6] read?
Its value is 650 ps.

Which results are given for `O=C(O)CN(CCN(CC(=O)O)Cc1cccc(C(=O)O)n1)Cc1cccc(C(=O)O)n1` [H4bpdea, N,N′-bis[(6-carboxypyridin-2-yl)methyl]-ethylene diamine-N,N′-diacetic (H4bpeda) acid]?
Log βGdL (log KGdL) [2]: 15.1(3); logβCaL [3]: 9.4(1); pKa (fourth listed) [4]: 2.9(1); pKa (highest, first listed) [4]: 8.5(1); pKa (second listed) [4]: 5.2(2); pKa (third listed) [4]: 3.5(1)

Which results are given for `O=C(O)CN1CCN(Cc2cccc(C(=O)O)n2)CCN(Cc2cccc(C(=O)O)n2)CC1` [H3bpatcn]?
pCa (−log [M]free) [5, 9]: 6.30; logβCaL (log KCaL) [5]: 8.18(7); increase in stability of the gadolinium complex (relative to nota complex) ([7]; due to two pyridyl nitrogen donors): 2.1 log units; pGd (−log [M]free) [7, 9]: 13.6; Log βGdL (log KGdL) [7]: 15.8(2); pKa4 ([8]; macrocycle nitrogen): 5.42(3); pKa5 ([8]; macrocycle nitrogen): 10.5(2); pKa2 ([8]; picolinate carboxylate): 2.3(2); pKa3 ([8]; picolinate carboxylate): 3.7(3) and 3.71(3); pKa1 ([8]; protonation of the carboxylate moiety): 2.2(2); ε [1]: 7850 M⁻¹ cm⁻¹; λexc [1]: 272 nm

With `CNC(=O)CN(CCN(CCN(CC(=O)[O-])CC(=O)NC)CC(=O)[O-])CC(=O)[O-].[Gd+3]` [[Gd(dtpa-bma)(H2O)]^−] as the compound, how does the pGd [2, 10] read?
The pGd was 15.8.

What about the “Log βGdL (log KGdL)” value [2] of the same compound?
Its value is 1.85.

And the pCa [3, 10]?
The pCa was 6.39.

For `O=C([O-])CN1CCN(Cc2cccc(C(=O)[O-])n2)CCN(Cc2cccc(C(=O)[O-])n2)CC1.[Gd+3]` [[Gd(bpatcn)]], which “Log βGdL (log KGdL)” value [7] is on record?
The value was 15.8(2).

Which results are given for `C1CNCCNCCN1` [1,4,7-triazacyclononane]?
pKa (highest, first listed) [4]: 10.42; pKa (second listed) [4]: 6.82

With `O=C(O)CN(CCN(CC(=O)O)Cc1ccccn1)Cc1ccccn1` [N,N′-bis(2-pyridinylmethyl)ethylenediamine-N,N′-diacetate] as the compound, how does the “contribution of the 2-pyridylmethyl to stability of the Gd^III complex” value ([2]; estimated) read?
Its value is 2.6 log units.

Which results are given for `O=C(O)CN(CCN(CC(=O)O)CC(=O)O)CC(=O)O` [H4edta]?
Log βGdL (log KGdL) [2]: 17.4; logβCaL [3]: 10.5; pKa (fourth listed) [4]: 2.60; pKa (highest, first listed) [4]: 10.19; pKa (second listed) [4]: 6.13; pKa (third listed) [4]: 2.69

For `O=C(O)CN1CCN(CC(=O)O)CCN(CC(=O)O)CC1` [H3nota, 1,4,7-triazacyclononane-N,N′,NN″-triacetic (H3nota) acid], which “Log βGdL (log KGdL)” value [2] is on record?
Its value is 13.7.

And the logβCaL [3]?
The logβCaL was 8.92.

What about the “pKa (highest, first listed)” value [4] of the same compound?
The value was 11.3(1).

And the “pKa (second listed)” value [4]?
Its value is 5.6.

What about the “pKa (third listed)” value [4] of the same compound?
The value was 2.88(2).
